Source: patent US20120095036A1, “NOVEL SUBSTITUTED INDAZOLE AND AZA-INDAZOLE DERIVATIVES AS GAMMA SECRETASE MODULATORS” (priority 2009, published 2012)

Key:
Aβ42 [1] = assay: Method 2: Aβ42 Alphalisa on supernatant of SKNBE2 cells carrying APP 695 wild type; assay type: cell-based; settings: Homo sapiens, SKNBE2 cells APP 695 wild type, overnight
Description: (§1) Screening was carried out using SKNBE2 cells carrying the APP 695—wild type, grown in Dulbecco's Modified Eagle's Medium/Nutrient mixture F-12 (DMEM/NUT-mix F-12) (HAM) provided by Invitrogen (cat no. 10371-029) containing 5% Serum/Fe supplemented with 1% non-essential amino acids, 1-glutamine 2 mM, Hepes 15 mM, penicillin 50 U/ml (units/ml) en streptomycin 50 μg/ml. Cells were grown to near confluency.
(§2) The screening was performed using a modification of the assay as described in Citron et al (1997) Nature Medicine 3: 67. Briefly, cells were plated in a 384-well plate at 10^4 cells/well in Ultraculture (Lonza, BE12-725F) supplemented with 1% glutamine (Invitrogen, 25030-024), 1% non-essential amino acid (NEAA), penicillin 50 U/ml en streptomycin 50 μg/ml in the presence of test compound at different test concentrations. The cell/compound mixture was incubated overnight at 37° C., 5% CO2, The next day the media were assayed by two sandwich immuno-assays, for Aβ42 and Aβtotal.
(§3) Aβtotal and Aβ42 concentrations were quantified in the cell supernatant using the Aphalisa technology (Perkin Elmer). Alphalisa is a sandwich assay using biotinylated antibody attached to streptavidin coated donorbeads and antibody conjugated to acceptor beads. In the presence of antigen, the beads come into close proximity. The excitation of the donor beads provokes the release of singlet oxygen molecules that trigger a cascade of energy transfer in the acceptor beads, resulting in light emission. To quantify the amount of Aβ42 in the cell supernatant, monoclonal antibody specific to the C-terminus of Aβ42 (JRF/cAβ42/26) was coupled to the receptor beads and biotinylated antibody specific to the N-terminus of AB (JRF/AβN/25) was used to react with the donor beads. To quantify the amount of Aβtotal in the cell supernatant, monoclonal antibody specific to the N-terminus of AB (JRF/AβN/25) was coupled to the receptor beads and biotinylated antibody specific to the mid region of Aβ (biotinylated 4G8) was used to react with the donor beads.
(§4) To obtain the values reported in Table 3b, the data were calculated as percentage of the maximum amount of amyloid Beta 42 measured in the absence of the test compound. The sigmoidal dose response curves were analyzed using non-linear regression analysis with percentage of the control plotted against the log concentration of the compound. A 4-parameter equation was used to determine the IC50.

Aβ42 [2] = assay: Method 1: Aβ42 sandwich ELISA on media of SKNBE2 cells carrying APP 695 wild type (γ-secretase-modulating activity); assay type: cell-based; settings: Homo sapiens, SKNBE2 cells APP 695 wild type, 18 hours
Description: as §1, with “Gibco” for “Invitrogen”, “31330-38)” for “10371-029)”, “acids.” for “acids, 1-glutamine 2 mM, Hepes 15 mM, penicillin 50 U/ml (units/ml) en streptomycin 50 μg/ml.”
(§5) The screening was performed using the assay as described in Citron et al (1997) Nature Medicine 3: 67. Briefly, cells were plated in a 96-well plate at about 10^5 cells/ml one day prior to addition of compounds. Compounds were added to the cells in Ultraculture (Lonza, BE12-725F) supplemented with 1% glutamine (Invitrogen, 25030-024) for 18 hours. The media were assayed by two sandwich ELISAs, for Aβ42 and Aβtotal. Toxicity of the compounds was assayed by WST-1 cell proliferation reagent (Roche, 1 644 807) according to the manufacturer's protocol.
To quantify the amount of Aβ42 in the cell supernatant, commercially available Enzyme-Linked-Immunosorbent-Assay (ELISA) kits were used (Innotest® β-Amyloid(1-42), Innogenetics N.V., Ghent, Belgium). The Aβ42 ELISA was performed essentially according to the manufacturer's protocol. Briefly, the standards (dilutions of synthetic A131-42) were prepared in polypropylene Eppendorf with final concentrations of 8000 down to […] (½ dilution step). Samples, standards and blanks (100 μl) were added to the anti-Aβ42-coated plate supplied with the kit (the capture antibody selectively recognizes the C-terminal end of the antigen). The plate was allowed to incubate 3 h at 25° C. in order to allow formation of the antibody-amyloid complex. Following this incubation and subsequent wash steps a selective anti-A13-antibody conjugate (biotinylated 3D6) was added and incubated for a minimum of 1 hour in order to allow formation of the antibody-Amyloid-antibody-complex. After incubation and appropriate wash steps, a Streptavidine-Peroxidase-Conjugate was added, followed 30 minutes later by an addition of 3,3′,5,5′-tetramethylbenzidine (TMB)/peroxide mixture, resulting in the conversion of the substrate into a coloured product. This reaction was stopped by the addition of sulfuric acid (0.9 N) and the colour intensity was measured by means of photometry with an ELISA-reader with a 450 nm filter.
(§6) To obtain the values reported in Table 3a, the sigmoidal dose response curves were analysed by computerised curve-fitting, with percent of inhibition plotted against compound concentration. A 4-parameter equation (model 205) in XLfit was used to determine the IC50. The top and the bottom of the curve were fixed to 100 and 0, respectively, and the hill slope was fixed to 1. The IC50 represents the concentration of a compound that is required for inhibiting a biological effect by 50% (Here, it is the concentration where Aβ peptide level is reduced by 50%).

Aβtotal [3] = assay: Method 2: Aβtotal Alphalisa on supernatant of SKNBE2 cells carrying APP 695 wild type; assay type: cell-based; settings: Homo sapiens, SKNBE2 cells APP 695 wild type, overnight
Description: as §1, §2, §3, §4

Aβtotal [4] = assay: Method 1: Aβtotal sandwich ELISA on media of SKNBE2 cells carrying APP 695 wild type; assay type: cell-based; settings: Homo sapiens, SKNBE2 cells APP 695 wild type, 18 hours
Description: as §1, with “Gibco” for “Invitrogen”, “31330-38)” for “10371-029)”, “acids.” for “acids, 1-glutamine 2 mM, Hepes 15 mM, penicillin 50 U/ml (units/ml) en streptomycin 50 μg/ml.”
as §5
To quantify the amount of Aβtotal in the cell supernatant, samples and standards were added to a 6E10-coated plate. The plate was allowed to incubate overnight at 4° C. in order to allow formation of the antibody-amyloid complex. Following this incubation and subsequent wash steps a selective anti-AB-antibody conjugate (biotinylated 4G8) was added and incubated for a minimum of 1 hour in order to allow formation of the antibody-Amyloid-antibody-complex. After incubation and appropriate wash steps, a Streptavidine-Peroxidase-Conjugate was added, followed 30 minutes later by an addition of Quanta Blu fluorogenic peroxidase substrate according to the manufacturer's instructions (Pierce Corp., Rockford, Il).
as §6

SMILES	melting point	IC50 (Aβ42 [1])	IC50 (Aβ42 [2])	IC50 (Aβtotal [3])	IC50 (Aβtotal [4])
COc1cccc(-n2nc3c(Nc4ccc(-c5cnn(C)c5)c(F)c4)cccc3c2C)c1 [Compound 7, N-[3-fluoro-4-(1-methyl-1H-pyrazol-4-yl)phenyl]-2-(3-methoxyphenyl)-3-methyl-2H-indazol-7-amine]	239.1 °C	0.055 µM	0.229 µM	> 10 µM	> 3 µM
Cc1ncc(-c2ccc(Nc3cccc4c(CN)n(-c5ccc(F)cc5)nc34)cc2)o1 [Compound 8, 2-(4-fluorophenyl)-7-[[4-(2-methyl-5-oxazolyl)phenyl]amino]-2H-indazole-3-methanamine]	137 °C	0.177 µM	0.18 µM	> 10 µM	> 10 µM
Cc1ncn(-c2ccc(Nc3cccc4c(C)n(CCCC(F)(F)F)nc34)cc2F)n1 [Compound 22, N-[3-fluoro-4-(3-methyl-1H-1,2,4-triazol-1-yl)phenyl]-3-methyl-2-(4,4,4-trifluorobutyl)-2H-indazol-7-amine]	135.6 °C	> 3 µM	> 3 µM	> 3 µM	> 3 µM
Cc1ncn(-c2ccc(Nc3cccc4c(C)n(-c5ccc(F)cc5F)nc34)cc2F)n1 [Compound 23, 2-(2,4-difluorophenyl)-N-[3-fluoro-4-(3-methyl-1H-1,2,4-triazol-1-yl)phenyl]-3-methyl-2H-indazol-7-amine]	146.9 °C	0.724 µM	1.04 µM	> 10 µM	–
Cc1ncc(-c2ccc(Nc3cccc4c(C#N)n(-c5ccc(F)cc5)nc34)cc2)o1 [Compound 32, 2-(4-fluorophenyl)-7-[[4-(2-methyl-5-oxazolyl)phenyl]amino]-2H-indazole-3-carbonitrile]	237.9 °C	> 3 µM	2.13 µM	> 3 µM	> 3 µM
Cc1ncc(-c2ccc(Nc3cccc4cn(-c5ccc6c(c5)OCO6)nc34)cc2)o1 [Compound 34, 2-(1,3-benzodioxol-5-yl)-N-[4-(2-methyl-5-oxazolyl)phenyl]-2H-indazol-7-amine]	175 °C	0.479 µM	0.359 µM	> 10 µM	–
COc1cccc(-n2nc3c(Nc4ccc(-c5cnc(C)o5)cc4)nccc3c2C)c1 [Compound 35, 2-(3-methoxyphenyl)-3-methyl-N-[4-(2-methyl-5-oxazolyl)phenyl]-2H-pyrazolo[3,4-c]pyridin-7-amine]	185 °C	0.166 µM	0.382 µM	> 10 µM	> 3 µM

The remaining lines, values ahead:

melting point	IC50 (Aβ42 [1])	IC50 (Aβ42 [2])	IC50 (Aβtotal [3])	IC50 (Aβtotal [4])	SMILES
164.4 °C	0.032 µM	0.186 µM	5.5 µM	> 3 µM	COc1cc(Nc2cccc3c(C)n(-c4ccc(F)cc4)nc23)ccc1-c1cnc(C)o1 [Compound 40, 2-(4-fluorophenyl)-N-[3-methoxy-4-(2-methyl-5-oxazolyl)phenyl]-3-methyl-2H-indazol-7-amine]
153.4 °C	0.363 µM	0.513 µM	> 10 µM	> 3 µM	Cc1ncc(-c2ccc(Nc3cccc4cn(CC(F)(F)F)nc34)cn2)o1 [Compound 44, N-[6-(2-methyl-5-oxazolyl)-3-pyridinyl]-2-(2,2,2-trifluoroethyl)-2H-indazol-7-amine]
172.5 °C	0.107 µM	–	1.66 µM	–	COc1nc(Nc2cc(C(C)C)nc3cn(CC(F)(F)F)nc23)ccc1-n1cnc(C)c1 [Compound 57, N-[6-methoxy-5-(4-methyl-1H-imidazol-1-yl)-2-pyridinyl]-5-(1-methylethyl)-2-(2,2,2-trifluoroethyl)-2H-pyrazolo[4,3-b]pyridin-7-amine]
